Where a SMILES comes first, the peptide text is derived from it.
Experiments:
E. coli G6 (blaNDM-5) = assay: MIC / IC50, micro-broth dilution; type: cell-based, Escherichia coli
Procedure: (§1) The MICs of all drugs were determined by micro-broth dilution method according to CLSI 2018 guidelines. The bacterial suspension used in the experiment was appropriate 1.5 × 10^6 colony-forming units (CFUs) per mL and mixed with the drug solution in a sterilized 96-well microtiter plate (Corning, New York, USA), then incubated at 37 °C for 16–18 h. MIC value was defined as the minimum drug concentration without visible bacteria. Meanwhile, the density of the bacteria at 600 nm was measured, and the corresponding IC50 was calculated using log (inhibitor) vs. response variable slope (four parameters) in Graphpad Prism version 8.3.0 software (San Diego, CA, USA). To assess the role of ROS production in the antibacterial activity of WW307, increasing concentrations of N-acetylcysteine (NAC) from 0 to 5 mM were added in culture medium, followed by MICs test.

E. coli CP131 (mcr-3) = assay: MIC / IC50, micro-broth dilution; type: cell-based, Escherichia coli; conditions: E. coli CP131 (mcr-3)
Procedure: as §1

E. coli C3 (blaNDM-1) = assay: MIC / IC50, micro-broth dilution; type: cell-based, Escherichia coli
Procedure: as §1

[1] = tested on: A. baumannii C222 (tet(X6)); assay: microbe, parasite or virus in culture; type: cell-based, Acinetobacter baumannii; conditions: A. baumannii C222 (tet(X6))
Procedure: as §1

Sheep RBCs = assay: Hemolysis analysis; type: cell-based; conditions: 8% sheep red blood cell suspension, 37 °C, 1 h, released hemoglobin at 576 nm; PBS negative, ddH2O positive control
Procedure: The hemolytic activity on all peptides was evaluated based on previous report. Briefly, fresh Sheep RBCs were washed twice with phosphate buffer (PBS), and then 8% red blood cell suspension was prepared. The increasing concentrations of AMPs and melittin were mixed with 8% red blood cell suspension, respectively, and incubated at 37 °C for 1 h. The sterilized PBS and double-distilled water (ddH2O) were used as blank and positive control, respectively. Afterwards, the supernatant was centrifuged to measure the absorption of released hemoglobin at 576 nm by an Infinite M200 Microplate reader (Tecan, Männedorf, Switzerland). The corresponding hemolysis rate was calculated.

MRSA T144 [2] = assay: Thermal, pH, salts, serum and protease stability (residual MIC); type: cell-based, Staphylococcus aureus
Procedure: (§2) In order to evaluate the influence of ions and serum on the activity of AMPs, 10 mM Na^+, K^+, Mg^2+, 10% Dulbecco’s Modified Eagle Medium (DMEM) and fetal bovine serum (FBS) were added into Mueller-Hinton broth (MHB) culture medium for subsequent MIC tests.
(§3) Drugs were incubated at different temperatures (range from 40 to 121 °C) and pH (range from 2 to 12) for 1 h, then adjust back to original pH, following MIC test to evaluate their residual activity. To evaluate the protease stability, pepsin, trypsin, and papain were mixed with WW307 to achieve a final concentration of 1 mM, and then incubated at 37 °C for 1 h. After incubation, the remaining protease was precipitated using acetonitrile and removed by centrifugation at 3000× g, following for MIC test.

E. coli B2 [3] = assay: as above; type: cell-based, Escherichia coli; conditions: protease precipitated with acetonitrile, then MIC test
E. coli B2 [4] = assay: as above; type: cell-based, Escherichia coli
Procedure: as §2, §3

E. coli 1F28 (tet(X4)) = assay: microbe, parasite or virus in culture; type: cell-based, Escherichia coli
Procedure: as §1

[5] = tested on: E. coli B2 (mcr-1 + blaNDM-5); assay: microbe, parasite or virus in culture; type: cell-based, Escherichia coli; conditions: E. coli B2 (mcr-1 + blaNDM-5)
Procedure: as §1

E. coli G92 (mcr-1) = assay: microbe, parasite or virus in culture; type: cell-based, Escherichia coli; conditions: E. coli G92 (mcr-1)
Procedure: as §1

[6] = tested on: P. cibarius HNCF44W (blaNDM-1 + tet(X6)); assay: MIC / IC50, micro-broth dilution; type: cell-based
Procedure: as §1

S. aureus G16 (RIF^R) = assay: microbe, parasite or virus in culture; type: cell-based, Staphylococcus aureus; conditions: S. aureus G16 (RIF^R)
Procedure: as §1

MRSA T144 [7] = assay: microbe, parasite or virus in culture; type: cell-based, Staphylococcus aureus
Procedure: as §1

MRSA T144 [8] = assay: Thermal, pH, salts, serum and protease stability (residual MIC); type: cell-based, Staphylococcus aureus; conditions: protease precipitated with acetonitrile, then MIC test
[9] = OD600 of micro-broth dilution plates, four-parameter fit
[10] = micro-broth dilution, CLSI 2018, ~1.5 × 10^6 CFUs per mL, 37 °C, 16–18 h
[11] = 10% fetal bovine serum (FBS) added into MHB
[12] = WW307 incubated at 40 °C for 1 h before MIC test
[13] = WW307 incubated at 60 °C for 1 h before MIC test
[14] = WW307 incubated at 80 °C for 1 h before MIC test
[15] = WW307 incubated at 100 °C for 1 h before MIC test
[16] = WW307 incubated at 121 °C for 1 h before MIC test
[17] = WW307 incubated at pH 2 for 1 h, adjusted back to original pH, then MIC test
[18] = WW307 incubated at pH 4 for 1 h, adjusted back to original pH, then MIC test
[19] = WW307 incubated at pH 6 for 1 h, adjusted back to original pH, then MIC test
[20] = WW307 incubated at pH 8 for 1 h, adjusted back to original pH, then MIC test
[21] = WW307 incubated at pH 10 for 1 h, adjusted back to original pH, then MIC test
[22] = WW307 incubated at pH 12 for 1 h, adjusted back to original pH, then MIC test
[23] = WW307 incubated with trypsin (1 mg/mL) at 37 °C for 1 h

CC(C)[C@H](NC(=O)[C@H](Cc1c[nH]c2ccccc12)NC(=O)[C@H](Cc1c[nH]c2ccccc12)NC(=O)[C@H](Cc1c[nH]c2ccccc12)NC(=O)[C@H](Cc1c[nH]c2ccccc12)NC(=O)[C@H](CCCNC(=N)N)NC(=O)[C@H](CCCNC(=N)N)NC(=O)[C@@H](N)CCCNC(=N)N)C(N)=O [WW307] (H-RRRWWWWV-NH2)
8 μg/mL: MIC after pH 12 (E. coli B2 [4]; [22])
2 µg/mL: MIC [6, 10]
8 µg/mL: MIC (E. coli G6 (blaNDM-5); [10]) | MIC with DMEM (10%) (MRSA T144 [2]; 10% DMEM added into MHB) | MIC with Serum (10%) (MRSA T144 [2]; [11]) | MIC with DMEM (10%) (E. coli B2 [4]; 10% DMEM added into MHB) | MIC with Serum (10%) (E. coli B2 [4]; [11])
4 µg/mL: MIC (E. coli CP131 (mcr-3); [10]) | MIC (E. coli C3 (blaNDM-1); [10]) | MIC [1, 10] | MIC with K^+ (MRSA T144 [2]; 10 mM K^+ added into MHB) | MIC with Na^+ (MRSA T144 [2]; 10 mM Na^+ added into MHB) | MIC after 40 °C (MRSA T144 [2]; [12]) | MIC after 60 °C (MRSA T144 [2]; [13]) | MIC after 80 °C (MRSA T144 [2]; [14]) | MIC after 100 °C (MRSA T144 [2]; [15]) | MIC after 121 °C (MRSA T144 [2]; [16]) | MIC, Control (MRSA T144 [2]; untreated WW307) | MIC with K^+ (E. coli B2 [4]; 10 mM K^+ added into MHB) | MIC with Na^+ (E. coli B2 [4]; 10 mM Na^+ added into MHB) | MIC after 40 °C (E. coli B2 [4]; [12]) | MIC after 60 °C (E. coli B2 [4]; [13]) | MIC after 80 °C (E. coli B2 [4]; [14]) | MIC after 100 °C (E. coli B2 [4]; [15]) | MIC after 121 °C (E. coli B2 [4]; [16]) | MIC after pepsin (E. coli B2 [4]; WW307 incubated with pepsin (1 mg/mL) at 37 °C for 1 h, protease precipitated with acetonitrile, then MIC test) | MIC, Control (E. coli B2 [4]; untreated WW307) | MIC (E. coli 1F28 (tet(X4)); [10]) | MIC [5, 10] | MIC (E. coli G92 (mcr-1); [10]) | MIC (MRSA T144 [7]; [10]) | MIC after pepsin (MRSA T144 [8]; WW307 incubated with pepsin (1 mg/mL) at 37 °C for 1 h)
1.03 µg/mL: IC50 (MRSA T144 [7]; [9])
2.21 µg/mL: IC50 [6, 9]
4 μg/mL: MIC after pH 2 (MRSA T144 [2]; [17]) | MIC after pH 4 (MRSA T144 [2]; [18]) | MIC after pH 6 (MRSA T144 [2]; [19]) | MIC after pH 8 (MRSA T144 [2]; [20]) | MIC after pH 10 (MRSA T144 [2]; [21]) | MIC after pH 12 (MRSA T144 [2]; [22]) | MIC after pH 2 (E. coli B2 [4]; [17]) | MIC after pH 4 (E. coli B2 [4]; [18]) | MIC after pH 6 (E. coli B2 [4]; [19]) | MIC after pH 8 (E. coli B2 [4]; [20]) | MIC after pH 10 (E. coli B2 [4]; [21])
2.13 µg/mL: IC50 (E. coli 1F28 (tet(X4)); [9])
0.52 µg/mL: IC50 (S. aureus G16 (RIF^R); [9])
> 128 µg/mL: HL50 (peptide concentration that causes 50% hemolysis) (Sheep RBCs)
1 µg/mL: MIC (S. aureus G16 (RIF^R); [10])
2.18 µg/mL: IC50 (E. coli G92 (mcr-1); [9])
>128 µg/mL: MIC after papain (MRSA T144 [2]; WW307 incubated with papain (1 mg/mL) at 37 °C for 1 h, protease precipitated with acetonitrile, then MIC test) | MIC after papain (E. coli B2 [3]; WW307 incubated with papain (1 mg/mL) at 37 °C for 1 h) | MIC after trypsin (E. coli B2 [3]; [23]) | MIC after trypsin (MRSA T144 [8]; [23])
2.25 µg/mL: IC50 (E. coli G6 (blaNDM-5); [9])
16 µg/mL: MIC with Mg^2+ (MRSA T144 [2]; 10 mM Mg^2+ added into MHB) | MIC with Mg^2+ (E. coli B2 [4]; 10 mM Mg^2+ added into MHB)
1.82 µg/mL: IC50 (E. coli C3 (blaNDM-1); [9])
2.15 µg/mL: IC50 [1, 9]
4.18 µg/mL: IC50 [5, 9]
2.07 µg/mL: IC50 (E. coli CP131 (mcr-3); [9])

From article PMC8063935, “Amphipathic Peptide Antibiotics with Potent Activity against Multidrug-Resistant Pathogens” (Pharmaceutics, 2021)
